Like-named read-outs stand apart in the source and are kept apart here.
Key:
mild to moderate UC = conditions: cited from earlier work
human beta-tryptase = human beta-tryptase (Homo sapiens, UniProt P20231); assay: Inhibition of recombinant human beta-tryptase (Ki); format: biochemical; conditions: recombinant enzyme
[1] = molecular target: T1, mouse MCPT-6 (mouse orthologue of human beta-tryptase) (Mus musculus, UniProt P21845); assay: Inhibition of recombinant mouse MCPT-6 (Ki); format: biochemical; conditions: recombinant enzyme
T1 sequence (P21845 32-276): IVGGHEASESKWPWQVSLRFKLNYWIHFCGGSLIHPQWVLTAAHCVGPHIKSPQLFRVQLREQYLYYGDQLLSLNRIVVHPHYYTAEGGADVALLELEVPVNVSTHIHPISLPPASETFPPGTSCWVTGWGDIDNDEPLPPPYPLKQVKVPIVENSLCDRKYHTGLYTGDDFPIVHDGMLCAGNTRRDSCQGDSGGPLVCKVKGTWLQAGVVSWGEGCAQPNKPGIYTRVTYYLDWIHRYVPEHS

[2] = test system: TNBS-induced ulcerative colitis; assay: Murine TNBS-induced ulcerative colitis; format: in vivo, male balb/mice; conditions: for % protective effect vs. TNBS alone: Colon wt/length (TNBS-719)/(TNBS-ctl) / % protective effect vs. TNBS alone: Diarrhea / % protective effect vs. TNBS alone: Dilation / % protective effect vs. TNBS alone: MPO / % protective effect vs. TNBS alone: Macroscopic Score / % protective effect vs. TNBS alone: Ulceration / % protective effect vs. TNBS alone: Body wt d 4 (% Δ719-% ΔTNBS)/(% Δ Ctl-% ΔTNBS) / % protective effect vs. TNBS alone: Tissue TNFα: day 4; for % protective effect vs. TNBS alone: Body wt d 4 (% Δ719-% ΔTNBS)/(% Δ Ctl-% ΔTNBS): oral once daily
Method: The effect of the compound of Formula I in murine TNBS-induced ulcerative colitis. TNBS (Trinitro benzene sulfonic acid) is known to induce colitis in some strains of mice and rats by haptenating colonic proteins, resulting in an immune response. This model resembles multiple features, both histologic and immunologic, of human IBD (particularly Crohn's disease).
In some experiments, male balb/mice were pre-sensitized with 1% TNBS administered epicutaneously on day −7. On Day 0, TBNS (2.5 mg/100 mcl) in 35% ethanol or 100 mg/kg TNBS in 50% ethanol, was administered intrarectally, and colitis-relevant readouts were measured 4 days later. The compound of Formula I as hydrochloride salt or as fumarate salt was administered orally in 1% carboxymethylcellulose-Tween. Sulfazalazine was given at 100 mg/kg. Both compounds were given once daily.
• 0 No damage • 1 Hyperemia without ulcers • 2 Hyperemia and bowel wall thickening without ulcers • 3 One site of ulceration without bowel wall thickening • 4 Two or more sites of ulceration/inflammation • 5 0.5 cm inflammation and major damage • 6-10 1 cm or more of major damage (0.5 cm=1 point) • 0/1 Diarrhea +/− • 0/1/2 No dilatation/partial dilatation/dilatation in the whole length

b-tryptase = b-tryptase (Homo sapiens, UniProt P20231); conditions: reported selective b-tryptase inhibitor at low doses; cited from earlier work
Chain of b-tryptase (P20231 31-275): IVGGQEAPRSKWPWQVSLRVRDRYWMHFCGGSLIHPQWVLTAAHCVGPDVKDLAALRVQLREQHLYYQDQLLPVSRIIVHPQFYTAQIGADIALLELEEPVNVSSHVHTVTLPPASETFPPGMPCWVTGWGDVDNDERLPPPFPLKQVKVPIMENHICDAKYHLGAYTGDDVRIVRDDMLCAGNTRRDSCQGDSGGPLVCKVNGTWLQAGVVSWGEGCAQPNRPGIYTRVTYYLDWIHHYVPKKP

TNBS-induced colitis = conditions: rat; intra-colonic injections of NM 10-9, 10-11 and 10-13 M daily for 6 days; compared with 5-ASA 25 mg/Kg; cited from earlier work
[3] = first Formula I / sulfazalazine column pair, sulfazalazine 100 mg/kg
[4] = second Formula I / sulfazalazine column pair, sulfazalazine 100 mg/kg

Chain of human beta-tryptase (P20231 31-275): as above

NC(N)=Nc1ccc(CN2CCN(C(=O)O[C@@H]3CO[C@H]4[C@@H]3OC[C@H]4OC(=O)N3CCN(Cc4ccc(N=C(N)N)cc4)CC3)CC2)cc1 [APC-2059]
safety and tolerability (mild to moderate UC; 20 mg, SC, BID for 28 days on background of oral 5-ASA): safe and well tolerated
patients meeting remission criteria (DAI=0) (mild to moderate UC; 20 mg, SC, BID, 28 days, 5/56): 9%
patients meeting primary EP as responded (DAI≦3) (mild to moderate UC; 20 mg, SC, BID, 28 days, 16/56): 29%
patients meeting improved criteria (DAI≦3 or decreased by 4 points from baseline) (mild to moderate UC; 20 mg, SC, BID, 28 days, 27/56): 49%
response rate, post hoc (mild to moderate UC; baseline DAI score 7-9, 6/33): 18%
response rate, post hoc (mild to moderate UC; baseline DAI scores 6-7, 10/22): 45%
response, post hoc (mild to moderate UC; one patient, baseline DAI=11): did not respond

COCCn1cc(C(=O)N2CCC(c3cc(CN)ccc3F)CC2)c2c(OC(F)(F)F)ccc(F)c21 [Formula I, [4-(5-Aminomethyl-2-fluorophenyl)piperidine-1-yl][7-fluoro-1-(2-methoxyethyl)-4-trifluoromethoxy-1H-indol-3-yl]methanone]
Ki (human beta-tryptase): 38 nM
Ki [1]: 920 nM
% protective effect vs. TNBS alone: Colon wt/length (TNBS-719)/(TNBS-ctl) ([2]; Formula I 3 mpk): −10%
% protective effect vs. TNBS alone: Diarrhea ([2]; Formula I 3 mpk): 50%
% protective effect vs. TNBS alone: Dilation ([2]; Formula I 3 mpk): 25%
% protective effect vs. TNBS alone: MPO ([2]; Formula I 3 mpk): 0%
% protective effect vs. TNBS alone: Macroscopic Score ([2]; Formula I 3 mpk): 25%
% protective effect vs. TNBS alone: Ulceration ([2]; Formula I 3 mpk): 23%
% protective effect vs. TNBS alone: Colon wt/length (TNBS-719)/(TNBS-ctl) ([2]; Formula I 10 mpk): 16%
% protective effect vs. TNBS alone: Diarrhea ([2]; Formula I 10 mpk): 50%
% protective effect vs. TNBS alone: Dilation ([2]; Formula I 10 mpk): 38%
% protective effect vs. TNBS alone: MPO ([2]; Formula I 10 mpk): 0%
% protective effect vs. TNBS alone: Macroscopic Score ([2]; Formula I 10 mpk): 27%
% protective effect vs. TNBS alone: Ulceration ([2]; Formula I 10 mpk): 25%
decrease of macroscopic damage ([2]; doses ranging from 3-30 mg/kg, oral, once daily, hydrochloride or fumarate salt): 20-50%
% protective effect vs. TNBS alone: Body wt d 4 (% Δ719-% ΔTNBS)/(% Δ Ctl-% ΔTNBS) [2, 3]: 20%
% protective effect vs. TNBS alone: Colon wt/length (TNBS-719)/(TNBS-ctl) [2, 3]: 41%
% protective effect vs. TNBS alone: Diarrhea [2, 3]: 50%
% protective effect vs. TNBS alone: Dilation [2, 3]: 55%
% protective effect vs. TNBS alone: MPO [2, 3]: 13%
% protective effect vs. TNBS alone: Macroscopic Score [2, 3]: 51%
% protective effect vs. TNBS alone: Tissue TNFα [2, 3]: 50%
% protective effect vs. TNBS alone: Ulceration [2, 3]: 50%
protective effects in multiple aspects of experimental colitis ([2]; oral, once daily, versus sulfazalazine positive control): compared well with the sulfazalazine positive control
% protective effect vs. TNBS alone: Body wt d 4 (% Δ719-% ΔTNBS)/(% Δ Ctl-% ΔTNBS) [2, 4]: 27%
% protective effect vs. TNBS alone: Colon wt/length (TNBS-719)/(TNBS-ctl) [2, 4]: 23%
% protective effect vs. TNBS alone: Diarrhea [2, 4]: 57%
% protective effect vs. TNBS alone: Dilation [2, 4]: 33%
% protective effect vs. TNBS alone: MPO [2, 4]: 19%
% protective effect vs. TNBS alone: Macroscopic Score [2, 4]: 30%
% protective effect vs. TNBS alone: Ulceration [2, 4]: 21%

N=C(N)c1ccc2cc(OC(=O)c3ccc(N=C(N)N)cc3)ccc2c1 [Nafamostat mesilate]
Ki (b-tryptase): 0.095 nM
colonic mucosal inflammation (TNBS-induced colitis): significantly attenuated

O=C(O)c1cc(/N=N/c2ccc(S(=O)(=O)Nc3ccccn3)cc2)ccc1O [sulfazalazine, reference compound]
% protective effect vs. TNBS alone: Body wt d 4 (% Δ719-% ΔTNBS)/(% Δ Ctl-% ΔTNBS) [2, 3]: 46%
% protective effect vs. TNBS alone: Colon wt/length (TNBS-719)/(TNBS-ctl) [2, 3]: 29%
% protective effect vs. TNBS alone: Diarrhea [2, 3]: 50%
% protective effect vs. TNBS alone: Dilation [2, 3]: 33%
% protective effect vs. TNBS alone: MPO [2, 3]: 44%
% protective effect vs. TNBS alone: Macroscopic Score [2, 3]: 51%
% protective effect vs. TNBS alone: Tissue TNFα [2, 3]: 50%
% protective effect vs. TNBS alone: Ulceration [2, 3]: 53%
% protective effect vs. TNBS alone: Body wt d 4 (% Δ719-% ΔTNBS)/(% Δ Ctl-% ΔTNBS) [2, 4]: 10%
% protective effect vs. TNBS alone: Colon wt/length (TNBS-719)/(TNBS-ctl) [2, 4]: 23%
% protective effect vs. TNBS alone: Diarrhea [2, 4]: 43%
% protective effect vs. TNBS alone: Dilation [2, 4]: 8%
% protective effect vs. TNBS alone: MPO [2, 4]: 21%
% protective effect vs. TNBS alone: Macroscopic Score [2, 4]: 14%
% protective effect vs. TNBS alone: Ulceration [2, 4]: 11%

From patent US20120238603A1, “TREATMENT FOR INFLAMMATORY BOWEL DISEASE” (SANOFI, priority 2009, published 2012)
